Several values for one entry are separate records, joined by “and”; a condition that tells them apart may be missing. Equal values may be shown once. Where a name gives a salt, the structure may show the parent alone. Marks after values point to notes of the source that are not given here.
Tests used:
[1] = given orally; dosages of up to 1200 µg per day; Human Reproduction, Vol. 16, No. 8, 2001; cited from earlier work
[2] = tested on: rat model of post-operative pain; experiment: Rat model of post-operative pain (plantar incision), tactile allodynia by electronic von Frey; format: in vivo, Wistar rats; conditions: for Tactile Pressure (g) Post-treatment 15min. / Tactile Pressure (g) Post-treatment 30min. / Tactile Pressure (g) Post-treatment 60min. / Tactile Pressure (g) Post-treatment 120 min.: 24 hours after surgery, single readings at 4 points per rat; for Tactile Pressure (g) Post-treatment 15min. Ave. / Tactile Pressure (g) Post-treatment 30min. Ave. / Tactile Pressure (g) Post-treatment 60min. Ave. / Tactile Pressure (g) Post-treatment 120 min. Ave.: average of 4 points; for Tactile Pressure (g) Post-treatment 15min. Mean / Tactile Pressure (g) Post-treatment 30min. Mean / Tactile Pressure (g) Post-treatment 60min. Mean / Tactile Pressure (g) Post-treatment 120 min. Mean: group mean of 5 rats; for Δ Treatment 15min. / Δ Treatment 30min. / Δ Treatment 60min. / Δ Treatment 120 min.: (Post-Treatment) - (Pre-Treatment)
Experimental: Lofexidine at 0.00032 and 0.0032 mg/rat injected intrathecally (ITH) was evaluated for possible analgesic activity in a rat model of post-operative pain which was induced with an incision made on the plantar surface of the hind paw. To measure tactile allodynia, a supertip with a flattened surface connected to Electrovonfrey Aesthethiometer (IITC, USA) was applied slowly and gently onto the plantar surface of the hind paw, where 4 points around the incision were identified. The endpoint is the mean withdrawal threshold values (gm) in response to von Frey filament, serving as a measure of analgesic activity. Percent inhibition was calculated as Δ treatment values (change in threshold pressure caused by treatment) relative to Δ blank values (change in threshold value caused by incision). Lofexidine.HCl was dissolved in 0.9% NaCl and at doses of 0.00032 and 0.0032 mg/rat was administered intrathecally (ITH). The dosing volume was 10 µl/rat. Male Wistar derived rats weighing 270 ± 30 g provided by BioLasco Taiwan (under Charles River Laboratories Technology licensee) were used. Space allocation for animals was 45 x 23 x 15 cm for 6 rats. Animals were housed in APEC^R cages. All animals were maintained in a controlled temperature (22-24°C) and humidity (60%-80%) environment with 12 hours light dark cycles for at least one week in MDS Pharma Services-Taiwan Laboratory prior to use. Free access to standard lab chow (Lab Diet, Rodent Diet, PMI Nutrition International, USA) and tap water was granted. All aspects of this work including housing, experimentation and disposal of animals were performed in general accordance with the Guide for the Care and Use of Laboratory Animals (National Academy Press, Washington, D. C, 1996). Groups of 5 male Wistar rats weighing 270 ± 30 g were used. Prior to surgery, individual animals were acclimatised to the testing environment and baseline responses to Electronic Von Frey Aesthesiometer (2290CE Electrovonfrey®, IITC, USA) with a rigid tip were performed (Pre-Incision). Under pentobarbital (50 mg/kg, 5 ml/kg, i.p.) anesthesia, the left hind paw was aseptically prepared. A 1-cm longitudinal incision was made with a number 11 blade, through the skin and fascia of the plantar aspect of the foot, starting 0.5 cm from the proximal edge of the heel and extending toward the toes. The plantaris muscle was elevated and incised longitudinally, followed by crushing with a mosquito hemostat for 20 seconds. The muscle origin and insertion remained intact After hemostasis with gentle pressure, the skin and fascia were then closed as one layer using 4-0 silk suture. Evaluation for pain was performed at 24 hours postoperatively between 08:00 and 16:00h. Each animal was monitored at 15, 30, 60 and 120 minutes after intrathecal administration of lofexidine.HCl. The rats were placed under inverted plexiglas cages on a wire mesh rack and a brief observation of general behavior post-injection was made. The rigid tip part of the Electronic Von Frey Aesthesiometer was applied perpendicularly from underneath the mesh floor to the four points around the wound surface of the animal with slow upward force against the paw. A positive response to tactile pressure was recorded if the paw was sharply withdrawn; ambulation was considered an ambiguous response, and in such cases, the stimulus was reapplied. Mean values from 4 points for each rat and from 5 rats in each group were calculated. Percent inhibition due to treatment relative to pre-treatment pain response was calculated according to the formula: Tactile Pressure [(Post-Treatment) - (Pre-Treatment)]/[(Pre-Incision) - (Pre-Treatment)] x 100%. Inhibition by 50% or more (≥50%) is considered significant analgesic effect. Unpaired Student's t test is applied for comparison of the % inhibition values between test substance-and vehicle-treated groups. Significance is considered at P<0.05 level

[3] = 0.00032 mg/rat ITH, individual rat
[4] = 0.00032 mg/rat ITH, group, Δ Treatment/Δ Blank x 100%
[5] = 0.00032 mg/rat ITH, group, Δ Blank 30.2
[6] = 0.0032 mg/rat ITH, individual rat
[7] = 0.0032 mg/rat ITH, group, Δ Treatment/Δ Blank x 100%, ≥50% considered significant
[8] = 0.0032 mg/rat ITH, group, Δ Blank 32.9

CC(Oc1c(Cl)cccc1Cl)C1=NCCN1 (stereo not drawn) [Lofexidine HCl]
effectiveness for treatment of chronic pelvic pain [1]: not effective | analgesic effect ([2]; 0.00032 mg/rat ITH): slight analgesic effect | Tactile Pressure (g) Post-treatment 15min. ([2]; 0.00032 mg/rat ITH): 26.6 g and 26.9 g and 28.6 g and 23.1 g (2×) and 21.6 g and 17.6 g and 23.3 g and 15.5 g and 18.4 g and 21.1 g and 19.3 g and 23.6 g and 20.5 g and 24.6 g and 20.1 g and 17.9 g and 19.2 g and 14.4 g and 20.6 g | Tactile Pressure (g) Post-treatment 30min. ([2]; 0.00032 mg/rat ITH): 25.9 g and 23.6 g and 32.5 g and 18.6 g and 25.7 g and 28.4 g and 26.0 g and 20.6 g and 22.3 g and 20.4 g and 17.3 g and 24.6 g and 21.6 g and 22.5 g and 24.4 g and 24.3 g and 20.0 g and 19.4 g and 18.2 g and 19.2 g | Tactile Pressure (g) Post-treatment 60min. ([2]; 0.00032 mg/rat ITH): 23.3 g and 27.3 g and 23.6 g and 26.6 g and 22.9 g and 19.7 g (2×) and 24.4 g and 19.2 g and 19.9 g and 20.3 g and 22.6 g and 18.4 g and 25.1 g and 21.2 g and 22.0 g and 16.2 g and 21.1 g and 20.5 g and 21.6 g | Tactile Pressure (g) Post-treatment 120 min. ([2]; 0.00032 mg/rat ITH): 20.6 g (3×) and 21.0 g (2×) and 17.2 g and 19.9 g (2×) and 24.3 g and 21.2 g and 18.9 g and 21.6 g and 22.0 g and 18.0 g and 20.3 g and 22.4 g (2×) and 23.9 g and 18.6 g and 16.8 g | Tactile Pressure (g) Post-treatment 15min. Ave. [2, 3]: 26.3 g and 21.4 g and 18.6 g and 22.2 g and 18.0 g | Tactile Pressure (g) Post-treatment 30min. Ave. [2, 3]: 25.2 g (2×) and 21.2 g and 23.2 g and 19.2 g | Tactile Pressure (g) Post-treatment 60min. Ave. [2, 3]: 25.2 g and 21.6 g and 20.3 g and 22.0 g and 19.9 g | Tactile Pressure (g) Post-treatment 120 min. Ave. [2, 3]: 19.7 g and 21.4 g and 21.2 g (2×) and 19.4 g | Tactile Pressure (g) Post-treatment 15min. Mean ([2]; 0.00032 mg/rat ITH): 21.3 g | Tactile Pressure (g) Post-treatment 30min. Mean ([2]; 0.00032 mg/rat ITH): 22.8* g | Tactile Pressure (g) Post-treatment 60min. Mean ([2]; 0.00032 mg/rat ITH): 21.8 g | Tactile Pressure (g) Post-treatment 120 min. Mean ([2]; 0.00032 mg/rat ITH): 20.6 g | %Inh 15min. [2, 4]: 2.6% | %Inh 30min. [2, 4]: 7.6% | %Inh 60min. [2, 4]: 4.3% | %Inh 120 min. [2, 4]: 0.3% | Δ Treatment 15min. [2, 5]: 0.8 g | Δ Treatment 30min. [2, 5]: 2.3 g | Δ Treatment 60min. [2, 5]: 1.3 g | Δ Treatment 120 min. [2, 5]: 0.1 g | %Inh 15min. [2, 3]: 14.9% and 2.5% and -5.6% and 8.0% and -7.4% | %Inh 30min. [2, 3]: 11.1% and 12.8% and 4.1% and 11.4% and -3.2% | %Inh 60min. [2, 3]: 11.1% and 3.0% and 0.8% and 7.4% and -0.7% | %Inh 120 min. [2, 3]: -7.4% and 2.5% and 4.1% and 4.7% and -2.5% | Tactile Pressure (g) Post-treatment 15min. ([2]; 0.0032 mg/rat ITH): 48.4 g and 47.2 g and 55.3 g and 30.4 g and 23.5 g and 48.7 g and 43.0 g and 36.2 g and 32.4 g and 33.8 g and 21.4 g and 31.9 g and 37.7 g and 42.5 g (2×) and 34.5 g and 30.5 g and 40.7 g and 60.0 g and 40.6 g | Tactile Pressure (g) Post-treatment 30min. ([2]; 0.0032 mg/rat ITH): 36.4 g and 34.8 g and 44.1 g and 39.3 g and 34.1 g and 44.0 g and 38.1 g and 36.5 g and 36.8 g and 28.8 g and 30.3 g and 33.2 g and 34.5 g and 40.1 g and 37.2 g and 26.8 g and 27.7 g and 44.2 g and 54.3 g and 50.8 g | Tactile Pressure (g) Post-treatment 60min. ([2]; 0.0032 mg/rat ITH): 33.6 g and 35.6 g and 35.5 g and 36.7 g and 29.0 g and 28.5 g and 40.6 g and 31.8 g and 16.1 g and 16.5 g and 21.8 g and 16.6 g and 24.3 g and 26.8 g and 21.3 g and 21.1 g and 31.3 g and 41.3 g and 32.5 g and 49.5 g | Tactile Pressure (g) Post-treatment 120 min. ([2]; 0.0032 mg/rat ITH): 29.3 g and 21.6 g (2×) and 20.4 g and 19.2 g and 22.9 g and 22.1 g and 21.4 g and 14.5 g and 21.5 g and 17.6 g and 18.8 g and 16.2 g and 22.6 g and 24.7 g and 18.6 g and 31.1 g and 28.6 g and 27.9 g and 28.7 g | Tactile Pressure (g) Post-treatment 15min. Ave. [2, 6]: 45.3 g and 37.9 g and 29.9 g and 36.3 g and 46.0 g | Tactile Pressure (g) Post-treatment 30min. Ave. [2, 6]: 38.7 g and 38.2 g and 32.3 g and 34.7 g and 44.3 g | Tactile Pressure (g) Post-treatment 60min. Ave. [2, 6]: 35.4 g and 32.5 g and 17.8 g and 23.4 g and 38.7 g | Tactile Pressure (g) Post-treatment 120 min. Ave. [2, 6]: 22.6 g and 22.0 g and 18.1 g and 20.5 g and 29.1 g | Tactile Pressure (g) Post-treatment 15min. Mean ([2]; 0.0032 mg/rat ITH): 39.1* g | Tactile Pressure (g) Post-treatment 30min. Mean ([2]; 0.0032 mg/rat ITH): 37.6* g | Tactile Pressure (g) Post-treatment 60min. Mean ([2]; 0.0032 mg/rat ITH): 29.6 g | Tactile Pressure (g) Post-treatment 120 min. Mean ([2]; 0.0032 mg/rat ITH): 22.5 g | %Inh. 15 min. [2, 7]: (55.9) % | %Inh. 30min. [2, 7]: (51.4) % | %Inh. 60min. [2, 7]: 27.1% | %Inh. 120 min. [2, 7]: 5.5% | Δ Treatment 15min. [2, 8]: 18.4 g | Δ Treatment 30min. [2, 8]: 16.9 g | Δ Treatment 60min. [2, 8]: 8.9 g | Δ Treatment 120 min. [2, 8]: 1.8 g | %Inh 15min. [2, 6]: 67.7% and 46.2% and 39.2% and 41.8% and 84.2% | %Inh 30min. [2, 6]: 48.4% and 47.0% and 47.7% and 36.7% and 78.8% | %Inh 60min. [2, 6]: 38.7% and 32.5% and -3.5% and 0.9% and 60.8% | %Inh 120 min. [2, 6]: 1.2% and 5.8% and -2.5% and -8.2% and 29.9% | analgesic effect against post-operative pain ([2]; 0.0032 mg/rat intrathecal, at 15 and 30 minute time points, compared with Δ blank values): demonstrated analgesic effect

From patent EP1762239A1, “Lofexidine for intraspinal administration” (Texcontor Etablissement, priority 2005, dated 2007)
